{"source": "paper PMC9653409", "about": "“Generative deep learning enables the discovery of a potent and selective RIPK1 inhibitor” (Nature Communications, 2022)", "key": {"[1]": {"test_system": "DSS-induced IBD", "assay": "DSS-induced IBD mouse model: colon H&E and S100a9 immunohistochemistry", "format": "in vivo, C57BL/6 female mice", "conditions": "40 mg/kg i.p., day 7", "procedure": "The heart, liver, spleen, lung, kidney and colon tissues were fixed directly in 4% paraformaldehyde (24 h), embedded in paraffin, and stained with H&E following standard procedures. All images were acquired using a Pannoramic MIDI scanner. The colon tissues were fixed in 4% paraformaldehyde for 24 h. The tissues were sliced to a thickness of […], deparaffinized with xylene, and rehydrated with graded ethanol. The tissue sections were then placed in a repair box filled with citric acid (pH 6.0) antigen retrieval buffer for antigen retrieval in a microwave oven followed by the quenching of endogenous peroxidase activity in 3% hydrogen peroxide. The sections were incubated overnight at 4 °C with primary antibody (S100a9, 73425, CST), which was prepared in PBS (pH 7.4) according to the manufacturer’s instructions. The sections were then washed three times with PBS, incubated for 1 h with the appropriate secondary antibodies, and staining with freshly prepared DAB color developing solution. Subsequently, the sections were counterstained with hematoxylin and mounted in non-aqueous mounting medium. All images were acquired using a Pannoramic MIDI scanner."}, "[2]": {"biological_target": "panel of human kinases (kinase named in endpoint) (Homo sapiens, UniProt P54762)", "sequence (P54762 18-984)": "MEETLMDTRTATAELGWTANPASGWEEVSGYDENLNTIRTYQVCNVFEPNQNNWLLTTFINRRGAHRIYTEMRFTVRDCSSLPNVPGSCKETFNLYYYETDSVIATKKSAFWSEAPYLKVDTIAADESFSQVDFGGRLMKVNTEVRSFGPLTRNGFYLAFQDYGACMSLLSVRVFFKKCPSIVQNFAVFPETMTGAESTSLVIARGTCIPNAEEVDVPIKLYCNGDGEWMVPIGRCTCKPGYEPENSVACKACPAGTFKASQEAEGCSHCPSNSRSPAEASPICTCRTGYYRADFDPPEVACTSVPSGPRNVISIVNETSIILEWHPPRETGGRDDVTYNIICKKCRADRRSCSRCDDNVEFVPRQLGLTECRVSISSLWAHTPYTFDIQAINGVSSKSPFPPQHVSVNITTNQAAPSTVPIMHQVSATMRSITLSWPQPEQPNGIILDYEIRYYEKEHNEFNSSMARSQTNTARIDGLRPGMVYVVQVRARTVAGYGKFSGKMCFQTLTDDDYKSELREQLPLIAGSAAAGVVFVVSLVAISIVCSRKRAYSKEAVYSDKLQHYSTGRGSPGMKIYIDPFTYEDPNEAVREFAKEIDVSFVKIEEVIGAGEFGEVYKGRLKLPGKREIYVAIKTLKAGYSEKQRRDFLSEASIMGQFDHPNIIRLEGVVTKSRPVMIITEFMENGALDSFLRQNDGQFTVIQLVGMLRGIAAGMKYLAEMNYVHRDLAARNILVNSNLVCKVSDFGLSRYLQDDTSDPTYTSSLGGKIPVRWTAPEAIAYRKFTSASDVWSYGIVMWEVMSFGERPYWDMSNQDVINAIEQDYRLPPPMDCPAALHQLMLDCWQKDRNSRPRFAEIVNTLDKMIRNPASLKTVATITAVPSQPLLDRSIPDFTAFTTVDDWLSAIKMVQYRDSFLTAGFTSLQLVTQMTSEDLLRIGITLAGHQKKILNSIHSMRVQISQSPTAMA", "assay": "Kinase inhibitory activity profiling of RI-962@10 µM (406 kinases, Eurofins)", "format": "biochemical", "conditions": "10 µM; read-out: Activity (%), EphB1(h)", "summary_of_the_method": "(§1)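 Radiometric filter-binding kinase assays: enzyme preincubated 15 min with compound in 8 mM MOPS pH 7.0, 0.2 mM EDTA, 250 μM peptide substrate, 10 mM magnesium acetate, 10 μM [γ-33P]-ATP. Reaction started with Mg/ATP, run 40 min at room temperature, stopped with phosphoric acid; 33P incorporation read by scintillation counting. Other kinases by similar protocols.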"}, "[3]": {"biological_target": "panel of human kinases (kinase named in endpoint) (Homo sapiens, UniProt P12931)", "sequence (P12931 whole entry)": "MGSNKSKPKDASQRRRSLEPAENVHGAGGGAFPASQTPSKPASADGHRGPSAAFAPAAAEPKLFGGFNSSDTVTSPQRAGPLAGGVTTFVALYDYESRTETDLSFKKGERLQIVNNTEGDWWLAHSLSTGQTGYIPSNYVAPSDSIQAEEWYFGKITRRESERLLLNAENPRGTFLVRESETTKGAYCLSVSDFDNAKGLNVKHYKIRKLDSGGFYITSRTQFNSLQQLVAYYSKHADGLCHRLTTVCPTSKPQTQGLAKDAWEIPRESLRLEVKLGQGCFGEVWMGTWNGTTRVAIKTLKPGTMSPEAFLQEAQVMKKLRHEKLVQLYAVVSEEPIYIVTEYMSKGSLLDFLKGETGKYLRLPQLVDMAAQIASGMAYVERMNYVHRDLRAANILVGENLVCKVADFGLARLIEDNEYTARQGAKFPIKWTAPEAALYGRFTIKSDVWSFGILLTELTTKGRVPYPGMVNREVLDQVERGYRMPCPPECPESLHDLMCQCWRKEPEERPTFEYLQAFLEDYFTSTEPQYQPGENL", "assay": "Kinase inhibitory activity profiling of RI-962@10 µM (406 kinases, Eurofins)", "format": "biochemical", "conditions": "10 µM", "summary_of_the_method": "as §1"}, "[4]": {"biological_target": "panel of human kinases (kinase named in endpoint) (Homo sapiens, UniProt Q8NG66)", "assay": "Kinase inhibitory activity profiling of RI-962@10 µM (406 kinases, Eurofins)", "format": "biochemical", "conditions": "10 µM; read-out: Activity (%), NEK11(h)", "summary_of_the_method": "as §1"}, "[5]": {"test_system": "U937 cells", "assay": "TSZ-induced U937 cell necroptosis model (CCK8)", "format": "cell-based", "conditions": "Homo sapiens, U-937", "procedure": "Cell necroptosis protection assays were performed in 96-well cell culture plates. Cells were plated in each well and cultured at 37 °C overnight. […] The cell survival rate was determined using a CCK8 cell viability assay kit and CLARIOstar (v5.61). […] All experiments were performed at least two times, and each EC50 value was expressed as mean ± standard deviation (SD)."}, "[6]": {"test_system": "IL-1β", "assay": "TNFα-induced SIRS mouse model: serum IL-1β (ELISA)", "format": "in vivo, C57BL/6 female mice", "conditions": "40 mg/kg i.p.", "procedure": "(§2) The body temperatures of the mice were continuously monitored until 6 h after TNFα administration. At 6 h after TNFα injection, four mice in each group were killed at random, and the serums, heart, liver, spleen, lung, and kidney tissues were collected for analysis.\n(§3) In the TNFα-induced SIRS model, at 6 h after TNFα injection, four mice in each group were killed at random, and the serums were collected, the serum concentrations of IL-1β and IL-6 were measured using ELISA kits (Neobioscience Technology) according to manufacturer’s instructions. […] The supernatant was collected by sequential centrifugation at 500 × g for 10 min and 3000 × g for 10 min. The concentrations of cytokines TNFα, IL-6, and IL-1β were measured using ELISA kits (Neobioscience Technology)."}, "[7]": {"assay": "Maximum tolerated dose study in mice"}, "[8]": {"test_system": "DSS-induced IBD", "assay": "DSS-induced IBD mouse model: colon length", "format": "in vivo, C57BL/6 female mice", "procedure": "DSS (3% w/v) was administered in drinking water ad libitum for 7 d (from day 0 to day 7). DSS solution was replaced three times on day 2, day 4, and day 6. […] Three mice in each group were killed at random on day 7, and distal colon tissues were collected for analysis. The mice weight and survival rate were recorded daily."}, "[9]": {"test_system": "IL-6", "assay": "TNFα-induced SIRS mouse model: serum IL-6 (ELISA)", "format": "in vivo, C57BL/6 female mice", "procedure": "as §2, §3"}, "[10]": {"biological_target": "RIPK2 (Homo sapiens, UniProt O43353)", "sequence (O43353 whole entry)": "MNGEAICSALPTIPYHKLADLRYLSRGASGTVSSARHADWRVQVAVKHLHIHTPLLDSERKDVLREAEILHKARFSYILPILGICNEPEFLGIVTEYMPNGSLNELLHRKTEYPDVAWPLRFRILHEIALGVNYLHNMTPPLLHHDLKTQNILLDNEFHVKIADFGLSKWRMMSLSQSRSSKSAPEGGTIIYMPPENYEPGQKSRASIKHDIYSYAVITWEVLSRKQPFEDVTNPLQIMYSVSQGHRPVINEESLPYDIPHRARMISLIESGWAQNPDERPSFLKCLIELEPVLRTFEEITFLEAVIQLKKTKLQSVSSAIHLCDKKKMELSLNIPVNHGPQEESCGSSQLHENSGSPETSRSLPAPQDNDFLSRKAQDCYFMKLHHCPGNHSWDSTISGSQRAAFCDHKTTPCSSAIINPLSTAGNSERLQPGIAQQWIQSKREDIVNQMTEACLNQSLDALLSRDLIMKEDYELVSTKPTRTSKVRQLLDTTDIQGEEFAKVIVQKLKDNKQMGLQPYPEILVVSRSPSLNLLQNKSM", "assay": "Kinase assay (Eurofins)", "format": "biochemical", "procedure": "(§4) In vitro kinase activity assays were conducted through the Kinase Profiling Services provided by Eurofins (Eurofins, France). The protocol for the RIPK1 assay is briefly described as follows (Protocols for other kinases are very similar and can be found in http://www.eurofins.com/pharmadiscovery). RIPK1 kinase was incubated with the test compound in assay buffer containing 8 mM MOPS (pH 7.0), 0.2 mM EDTA, 250 μM […], 10 mM magnesium acetate, and 10 μM [γ-33P]-ATP for 15 min at room temperature. The reaction was initiated by the addition of the Mg/ATP mixture. After incubation for 40 min at room temperature, and the reaction was stopped by the addition of 3% phosphoric acid. A 10 μL portion of the reaction mixture was then spotted onto a P30 filter mat and washed four times for 4 min in 0.425% phosphoric acid and once in methanol prior to drying and scintillation counting."}, "[11]": {"biological_target": "MLK3 (Homo sapiens, UniProt Q16584)", "sequence (Q16584 whole entry)": "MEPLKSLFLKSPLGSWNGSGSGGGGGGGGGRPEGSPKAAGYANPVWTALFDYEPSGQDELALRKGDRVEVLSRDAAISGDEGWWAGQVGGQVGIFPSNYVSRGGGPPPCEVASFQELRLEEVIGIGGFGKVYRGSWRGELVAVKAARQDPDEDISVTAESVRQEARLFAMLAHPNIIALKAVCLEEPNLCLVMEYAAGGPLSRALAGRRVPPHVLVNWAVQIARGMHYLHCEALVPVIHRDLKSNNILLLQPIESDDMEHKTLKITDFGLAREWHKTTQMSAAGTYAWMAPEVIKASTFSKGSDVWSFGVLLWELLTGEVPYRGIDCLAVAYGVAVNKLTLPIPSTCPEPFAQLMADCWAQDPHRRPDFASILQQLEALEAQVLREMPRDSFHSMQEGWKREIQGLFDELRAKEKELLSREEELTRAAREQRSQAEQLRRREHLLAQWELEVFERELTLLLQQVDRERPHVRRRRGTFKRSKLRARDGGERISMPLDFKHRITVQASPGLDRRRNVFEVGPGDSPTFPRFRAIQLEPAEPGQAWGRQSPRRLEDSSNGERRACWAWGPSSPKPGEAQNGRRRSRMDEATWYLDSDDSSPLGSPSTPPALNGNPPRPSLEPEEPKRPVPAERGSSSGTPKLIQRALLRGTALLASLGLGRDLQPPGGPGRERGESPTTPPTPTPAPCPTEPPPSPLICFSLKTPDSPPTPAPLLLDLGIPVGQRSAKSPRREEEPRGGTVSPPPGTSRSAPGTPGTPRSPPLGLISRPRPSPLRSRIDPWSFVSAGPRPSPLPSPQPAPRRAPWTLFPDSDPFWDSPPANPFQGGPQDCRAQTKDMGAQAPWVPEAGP", "assay": "Kinase assay (Eurofins)", "format": "biochemical", "procedure": "as §4"}, "[12]": {"biological_target": "MLK2 (Homo sapiens, UniProt Q02779)", "sequence (Q02779 whole entry)": "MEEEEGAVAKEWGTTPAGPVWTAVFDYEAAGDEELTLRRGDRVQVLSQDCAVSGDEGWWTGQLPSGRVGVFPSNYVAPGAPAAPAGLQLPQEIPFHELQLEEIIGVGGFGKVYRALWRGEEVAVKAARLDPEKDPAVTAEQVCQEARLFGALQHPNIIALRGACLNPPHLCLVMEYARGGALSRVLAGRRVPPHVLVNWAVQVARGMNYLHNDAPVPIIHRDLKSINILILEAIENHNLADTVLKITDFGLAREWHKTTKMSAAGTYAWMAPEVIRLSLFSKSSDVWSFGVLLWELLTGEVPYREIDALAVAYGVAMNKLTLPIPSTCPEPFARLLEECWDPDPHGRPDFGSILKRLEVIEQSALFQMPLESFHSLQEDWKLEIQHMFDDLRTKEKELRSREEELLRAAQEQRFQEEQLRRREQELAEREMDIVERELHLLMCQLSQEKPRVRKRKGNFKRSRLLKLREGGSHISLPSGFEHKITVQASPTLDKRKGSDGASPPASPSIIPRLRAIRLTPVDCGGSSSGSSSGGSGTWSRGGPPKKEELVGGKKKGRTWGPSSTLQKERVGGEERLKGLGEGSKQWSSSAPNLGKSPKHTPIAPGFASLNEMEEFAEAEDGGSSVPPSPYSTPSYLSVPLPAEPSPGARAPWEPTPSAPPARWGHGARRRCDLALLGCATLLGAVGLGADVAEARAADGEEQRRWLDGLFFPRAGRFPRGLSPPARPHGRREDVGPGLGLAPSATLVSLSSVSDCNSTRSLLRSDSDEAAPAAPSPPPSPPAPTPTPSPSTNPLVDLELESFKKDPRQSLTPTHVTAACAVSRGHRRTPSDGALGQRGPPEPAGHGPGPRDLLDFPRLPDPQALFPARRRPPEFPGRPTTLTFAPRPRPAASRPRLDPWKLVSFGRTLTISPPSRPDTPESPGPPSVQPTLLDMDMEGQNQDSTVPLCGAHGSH", "assay": "Kinase assay (Eurofins)", "format": "biochemical", "procedure": "as §4"}, "[13]": {"biological_target": "MLK1 (Homo sapiens, UniProt P80192)", "sequence (P80192 whole entry)": "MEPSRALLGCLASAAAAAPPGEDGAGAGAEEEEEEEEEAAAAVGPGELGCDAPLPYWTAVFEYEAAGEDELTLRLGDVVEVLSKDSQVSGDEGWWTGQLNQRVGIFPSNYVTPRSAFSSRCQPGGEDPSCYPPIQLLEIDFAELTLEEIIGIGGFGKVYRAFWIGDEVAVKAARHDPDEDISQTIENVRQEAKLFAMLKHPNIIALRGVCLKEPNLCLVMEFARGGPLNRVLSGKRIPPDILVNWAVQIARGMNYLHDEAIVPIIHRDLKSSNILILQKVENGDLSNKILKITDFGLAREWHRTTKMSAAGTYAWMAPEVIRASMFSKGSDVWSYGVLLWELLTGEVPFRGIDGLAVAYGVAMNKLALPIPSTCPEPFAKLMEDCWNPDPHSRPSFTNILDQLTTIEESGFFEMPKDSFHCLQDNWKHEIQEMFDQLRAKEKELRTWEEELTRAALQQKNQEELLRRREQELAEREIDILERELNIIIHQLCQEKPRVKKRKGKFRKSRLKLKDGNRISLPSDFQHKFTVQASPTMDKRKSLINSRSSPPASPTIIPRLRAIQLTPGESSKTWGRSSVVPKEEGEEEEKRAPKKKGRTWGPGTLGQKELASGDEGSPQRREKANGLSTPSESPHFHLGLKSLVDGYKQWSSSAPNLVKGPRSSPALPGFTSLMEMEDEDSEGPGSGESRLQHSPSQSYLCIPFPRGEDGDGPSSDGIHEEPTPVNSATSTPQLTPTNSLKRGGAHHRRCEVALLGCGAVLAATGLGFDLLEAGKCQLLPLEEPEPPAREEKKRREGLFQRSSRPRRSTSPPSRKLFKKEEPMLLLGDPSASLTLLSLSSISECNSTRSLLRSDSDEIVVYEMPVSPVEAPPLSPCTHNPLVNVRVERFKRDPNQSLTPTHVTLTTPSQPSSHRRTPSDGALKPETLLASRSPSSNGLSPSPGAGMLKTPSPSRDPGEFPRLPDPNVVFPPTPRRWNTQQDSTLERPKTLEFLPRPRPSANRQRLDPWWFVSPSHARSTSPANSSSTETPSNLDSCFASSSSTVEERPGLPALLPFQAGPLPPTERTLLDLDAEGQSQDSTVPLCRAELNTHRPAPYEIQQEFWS", "assay": "Kinase assay (Eurofins)", "format": "biochemical", "procedure": "as §4"}, "[14]": {"biological_target": "RIPK3 (Homo sapiens, UniProt Q9Y572)", "assay": "Kinase IC50 assay (Eurofins)", "format": "biochemical", "procedure": "as §4"}, "[15]": {"biological_target": "RIPK4 (Homo sapiens, UniProt P57078)", "assay": "Kinase IC50 assay (Eurofins)", "format": "biochemical", "procedure": "as §4"}}, "note": "Values joined by “and” are separate entries in the source; they are usually repeats but may differ in a detail not shown here. Identical values can stand only once. Like-named read-outs stand apart in the source and are kept apart here."}
{"compound": "CC(C)C(=O)Nc1nc2cc(-c3ccc4c(c3)c(C(=O)NC(C)c3ccccc3)cn4C)ccn2n1", "note": "(stereo not shown) [RI-962]", "values": [{"measurement": "infiltration by S100a9-positive cells", "setting": "[1]", "value": "no infiltration by S100a9-positive cells was observed"}, {"measurement": "tissue damage in the colons (histopathology)", "setting": "[1]", "value": "substantially decreased tissue damage"}, {"measurement": "activity at 10 µM", "setting": "[2]", "value": 111, "unit": "%"}, {"measurement": "activity at 10 µM", "setting": "[3]; read-out: Activity (%), Src(1-530)(h)", "value": 95, "unit": "%"}, {"measurement": "activity at 10 µM", "setting": "[3]; read-out: Activity (%), cSRC(h)", "value": 100, "unit": "%"}, {"measurement": "activity at 10 µM", "setting": "[4]", "value": 89, "unit": "%"}, {"measurement": "viability at 56 pM", "setting": "[5]; 0.000056 μM", "value": 1.42, "unit": "%"}, {"measurement": "viability at 0.000169 µM", "setting": "[5]; 0.000169 μM", "value": 0.727, "unit": "%"}, {"measurement": "viability at 0.000508 µM", "setting": "[5]; 0.000508 μM", "value": 0.579, "unit": "%"}, {"measurement": "viability at 0.001524 µM", "setting": "[5]; 0.001524 μM", "value": 2.66, "unit": "%"}, {"measurement": "viability at 0.004572 µM", "setting": "[5]; 0.004572 μM", "value": 8.5, "unit": "%"}, {"measurement": "viability at 0.013717 µM", "setting": "[5]; 0.013717 μM", "value": 37.9, "unit": "%"}, {"measurement": "viability at 0.041152 µM", "setting": "[5]; 0.041152 μM", "value": 78, "unit": "%"}, {"measurement": "viability at 0.123457 µM", "setting": "[5]; 0.123457 μM", "value": 84.5, "unit": "%"}, {"measurement": "viability at 0.37037 µM", "setting": "[5]; 0.370370 μM", "value": 96.7, "unit": "%"}, {"measurement": "viability at 1.11111 µM", "setting": "[5]; 1.111111 μM", "value": 96.2, "unit": "%"}, {"measurement": "viability at 3.33333 µM", "setting": "[5]; 3.333333 μM", "value": 90.4, "unit": "%"}, {"measurement": "EC50", "setting": "[5]; U937 treated with TSZ, 24 h", "value": 0.0178, "unit": "µM"}, {"measurement": "concentration of IL-1β", "setting": "[6]; 6 h after TNFα", "value": "remarkably reduced"}, {"measurement": "IL-1β", "setting": "[6]; serum 6 h after TNFα, animals 1-4", "value": "95.48 pg/mL and 91.16 pg/mL and 77.29 pg/mL and 76.39 pg/mL"}, {"measurement": "impact on mouse organs (H&E staining)", "setting": "[7]; 250mg/kg", "value": "no obvious impact on different mouse organs"}, {"measurement": "tolerability observations", "setting": "[7]; doses up to 250 mg/kg", "value": "no observed weight loss and no other side effects"}, {"measurement": "DSS-induced shortening of colon length", "setting": "[8]; 40 mg/kg i.p. once a day, day 7", "value": "markedly reduced"}, {"measurement": "Colon Length", "setting": "[8]; Figure 9b, individual replicates 1-3", "value": "52.0 mm and 54.0 mm (2×)"}, {"measurement": "concentration of IL-6", "setting": "[9]; 40 mg/kg i.p., 6 h after TNFα", "value": "remarkably reduced"}, {"measurement": "IL-6", "setting": "[9]; Figure 8d, individual replicates 1-4", "value": "652.9 pg/mL and 1655 pg/mL and 2421 pg/mL and 1071 pg/mL"}, {"measurement": "activity at 10 µM", "setting": "[10]; 10 µM, read-out: Activity (%), RIPK2(h)", "value": 79, "unit": "%"}, {"measurement": "IC50", "setting": "[10]; RIPK2", "value": "> 10", "unit": "µM"}, {"measurement": "folds less potent against MLK3 than against RIPK1", "setting": "[11]", "value": 107, "unit": "folds"}, {"measurement": "activity at 10 µM", "setting": "[11]; 10 µM, read-out: Activity (%), MLK3(h)", "value": 20, "unit": "%"}, {"measurement": "IC50", "setting": "[11]; MLK3", "value": 3.75, "unit": "µM"}, {"measurement": "activity at 10 µM", "setting": "[12]; 10 µM, read-out: Activity (%), MLK2(h)", "value": 29, "unit": "%"}, {"measurement": "IC50", "setting": "[12]; MLK2", "value": "> 10", "unit": "µM"}, {"measurement": "activity at 10 µM", "setting": "[13]; 10 µM, read-out: Activity (%), MLK1(h)", "value": 36, "unit": "%"}, {"measurement": "IC50", "setting": "[13]; MLK1", "value": "> 10", "unit": "µM"}, {"measurement": "IC50", "setting": "[14]", "value": "> 10", "unit": "µM"}, {"measurement": "IC50", "setting": "[15]", "value": "> 10", "unit": "µM"}]}
